Data published in patent US10953209B2, “Treating tumors using TTFields combined with a PARP inhibitor” (Board of Regents of the University of Texas System, priority 2018, dated 2021).

What was measured:
Format in all cases: cell-based, Human
[1] = tested on: H4006 NSCLC cell line; experiment: Clonogenic survival, TTFields + Olaparib combination (Highest Single Agent CI); conditions: for CI TTFields + Olap 12.5 μM: Olaparib 12.5 μM; for CI TTFields + Olap 12.5 μM / CI TTFields + Olap 25 μM / CI TTFields + Olap 50 μM: CI>1 = synergistic; for CI TTFields + Olap 25 μM: Olaparib 25 μM; for CI TTFields + Olap 50 μM: Olaparib 50 μM
Protocol: (§1) Experiments similar to those discussed above in connection with Table 2 and FIG. 6 were also conducted, but with exposure to IR replaced with exposure to three different concentrations (either 10, 20, and 40 μM; or 12.5, 25, and 50 μM, depending on the cell line) of the PARP inhibitor Olaparib. More specifically, Olaparib at each of the different concentrations was added to cells and the cells were then exposed to TTFields for 30 or 60 h (or not exposed to TTFields for the control) and immediately plated for survival. Baseline growth curves for exposing the various NSCLC cell lines to different concentrations of Olaparib without TTFields are depicted in FIG. 7. Clonogenic assays are depicted in FIG. 8 for the different combinations of drug concentration and TTFields exposure time in Table 3.
(§2) The inventors considered the combined effect of TTFields and Olaparib to be synergistic if the combination index (CI) was >1 and the P-value was <0.05 for a given time point and a given cell line.
(§3) Human NSCLC cell lines (H157, H4006, A549, H1299 and H1650) were purchased from American Tissue Culture Collection. All these cell lines were grown in RPMI medium supplemented with 10% (v/v) fetal bovine serum (Atlanta Biologicals, Flowery Branch, Ga., USA) and penicillin/[…] (final concentration 50 μg/ml; Sigma-Aldrich, St. Louis, Mo., U29SA). All cells were grown at 37° C. in a humidified incubator constantly supplied with 5% CO2.
(§4) The inventors used the inovitro system (NovoCure Ltd, Haifa, Israel) to generate TTFields that use two pairs of electrodes printed perpendicularly on the outer walls of a Petri dish composed of high dielectric constant ceramic (lead magnesium niobate-lead titanite (PMN-PT)). The transducer arrays were connected to a sinusoidal waveform generator that generate low-intensity electric fields at the desired frequencies in the medium as summarized in Table 1 above. The orientation of the TTFields was switched 90° every 1 s, thus covering the majority of the orientation axis of cell divisions, as previously described by Kirson et al. Plate temperature was maintained at 37° C. by placing the plates in a refrigerated incubator where the temperature was maintained at 19° C. to dissipate the heat generated by the inovitro system. The temperature was measured by 2 thermistors (Omega Engineering, Stamford, Conn., USA) attached to the ceramic walls. All cell suspensions were grown on a cover slip inside the inovitro dish (NovoCure Ltd) and treated with TTFields for the times indicated in the figure legends.
(§5) To study the effect of radiation sensitivity on NSCLC cells, exponentially growing cells were treated with IR using a Mark II Cs irradiator (J L Shepherd and Associates) at a dose rate of 3.47 Gy/min, followed by immediate application of TTFields for 24, 48 and 72 h. Cells were then re-seeded into 60 mm dishes and incubated for up to 2 weeks. Colonies containing 50 or more cells were considered viable. The data are presented as the mean±S.E.M. of three independent experiments. The radiosensitization effect of TTFields was evaluated according to The Highest Single Agent approach by calculating the CI as given below. CI=SFIR×SFTTFields)/SFIR+TTFields Where SF=Survivalfraction
(§6) The combination effect was considered enhanced/synergistic when CI>1, additive when CI=1. Statistical significance for a positive effect was determined by the P-value of a two-way ANOVA multiple comparison statistical test comparing the combination (TTFields plus IR) to the single agent showing the greatest cell killing for a given dose and time after IR.

[2] = tested on: H157 NSCLC cell line; experiment: as above; conditions: for CI TTFields + Olap 10 μM: Olaparib 10 μM; for CI TTFields + Olap 10 μM / CI TTFields + Olap 20 μM / CI TTFields + Olap 40 μM: CI>1 = synergistic; for CI TTFields + Olap 20 μM: Olaparib 20 μM; for CI TTFields + Olap 40 μM: Olaparib 40 μM
Protocol: as §1, §2, §3, §4, §5, §6

[3] = tested on: A549 NSCLC cell line; experiment: as above; conditions: for CI TTFields + Olap 12.5 μM: Olaparib 12.5 μM; for CI TTFields + Olap 12.5 μM / CI TTFields + Olap 25 μM / CI TTFields + Olap 50 μM: CI>1 = synergistic; for CI TTFields + Olap 25 μM: Olaparib 25 μM; for CI TTFields + Olap 50 μM: Olaparib 50 μM
Protocol: as §1, §2, §3, §4, §5, §6

[4] = tested on: H1299 NSCLC cell line; experiment: as above; conditions: for CI TTFields + Olap 10 μM: Olaparib 10 μM; for CI TTFields + Olap 10 μM / CI TTFields + Olap 20 μM / CI TTFields + Olap 40 μM: CI>1 = synergistic; for CI TTFields + Olap 20 μM: Olaparib 20 μM; for CI TTFields + Olap 40 μM: Olaparib 40 μM
Protocol: as §1, §2, §3, §4, §5, §6

[5] = tested on: H1299 cell line; experiment: Clonogenic survival, triple combination of TTFields, IR and Olaparib (CI); conditions: TTFields 48 h, Olaparib 20 μM
[6] = tested on: H1299 cell line; experiment: as above; conditions: Olaparib 20 μM; for CI TTFields + Olap + 1 Gy: 1 Gy IR; for CI TTFields + Olap + 2 Gy: 2 Gy IR; for CI TTFields + Olap: no IR
Protocol: (§7) Experiments similar to those discussed above in connection with Table 2 and FIG. 6 were also conducted for H1299 and H157 cell lines, both with and without the PARP inhibitor Olaparib. More specifically, Olaparib (at a concentration of 20 μM) was added to cells, the cells were immediately exposed to TTFields for 24, […], or 72 h, removed, irradiated (at different doses of radiation), and immediately plated for survival.
(§8) The combination effect was evaluated using the Highest Single Agent approach and are listed in Table 4 and depicted in FIGS. 9A and 9B, which summarize the clonogenic assays for the different combinations of RT dosage and TTFields exposure time in the table, both with and without the Olaparib.
as §2, §3, §4, §5
(§9) For the Triple Combination of TTFields, IR, and Olaparib, CI was calculated using the following equations: CI(TTFields+olap)=(SFOlap×SFTTFields)/SFOlap+TTFields CI(TTFields+1Gy)=(SF1Gy×SFTTFields)/SF1Gy+TTFields CI(TTFields+2Gy)=(SF2Gy×SFTTFields)/SF2Gy+TTFields CI(TTFields+olap+1Gy)=(SF1Gy+Olap×SFTTFields)/SFOlap+TTFields+1Gy CI(TTFields+olap+2Gy)=(SF2Gy+Olap×SFTTFields)/SFOlap+TTFields+2Gy Where SF=Survival fraction

[7] = tested on: H157 cell line; experiment: as above; conditions: Olaparib 20 μM; for CI TTFields + Olap + 1 Gy: 1 Gy IR; for CI TTFields + Olap + 2 Gy: 2 Gy IR; for CI TTFields + Olap: no IR
Protocol: as §7, §8, §2, §3, §4, §5, §9

[8] = all tested concentrations, synergistic if CI >1 and P <0.05
[9] = synergistic if CI >1 and P <0.05

Structure (SMILES): O=C(c1cc(Cc2n[nH]c(=O)c3ccccc23)ccc1F)N1CCN(C(=O)C2CC2)CC1 [Olaparib]
- CI TTFields + Olap 12.5 μM ([1]; TTFields 30 h): 1.17
- CI TTFields + Olap 25 μM ([1]; TTFields 30 h): 1.17
- CI TTFields + Olap 50 μM ([1]; TTFields 30 h): 1.32
- CI TTFields + Olap 12.5 μM ([1]; TTFields 60 h): 1.13
- CI TTFields + Olap 25 μM ([1]; TTFields 60 h): 1.34
- CI TTFields + Olap 50 μM ([1]; TTFields 60 h): 1.96
- combined effect of TTFields and Olaparib on cell death [1, 8]: synergistic
- CI TTFields + Olap 10 μM ([2]; TTFields 30 h): 1.3
- CI TTFields + Olap 20 μM ([2]; TTFields 30 h): 1.44
- CI TTFields + Olap 40 μM ([2]; TTFields 30 h): 1.78
- CI TTFields + Olap 10 μM ([2]; TTFields 60 h): 1.63
- CI TTFields + Olap 20 μM ([2]; TTFields 60 h): 1.43
- CI TTFields + Olap 40 μM ([2]; TTFields 60 h): 1.68
- combined effect of TTFields and Olaparib on cell death [2, 8]: synergistic
- CI TTFields + Olap 12.5 μM ([3]; TTFields 30 h): 1.12
- CI TTFields + Olap 25 μM ([3]; TTFields 30 h): 1.46
- CI TTFields + Olap 50 μM ([3]; TTFields 30 h): 1.32
- CI TTFields + Olap 12.5 μM ([3]; TTFields 60 h): 1.39
- CI TTFields + Olap 25 μM ([3]; TTFields 60 h): 1.716
- CI TTFields + Olap 50 μM ([3]; TTFields 60 h): 1.53
- combined effect of TTFields and Olaparib on cell death [3, 8]: synergistic
- CI TTFields + Olap 10 μM ([4]; TTFields 30 h): 1.12
- CI TTFields + Olap 20 μM ([4]; TTFields 30 h): 1.42
- CI TTFields + Olap 40 μM ([4]; TTFields 30 h): 1.9
- CI TTFields + Olap 10 μM ([4]; TTFields 60 h): 1.4
- CI TTFields + Olap 20 μM ([4]; TTFields 60 h): 1.5
- CI TTFields + Olap 40 μM ([4]; TTFields 60 h): 3.7
- combined effect of TTFields and Olaparib on cell death [4, 8]: synergistic
- CI TTFields + Olap + 1 Gy ([5]; 1 Gy IR): 1.70
- CI TTFields + Olap + 2 Gy ([5]; 2 Gy IR): 2.20
- CI TTFields + Olap ([5]; no IR): 1.02
- combined effect of TTFields, IR, and Olaparib on cell death [6, 9]: synergistic
- CI TTFields + Olap + 1 Gy ([6]; TTFields 24 h): 1.64
- CI TTFields + Olap + 2 Gy ([6]; TTFields 24 h): 1.96
- CI TTFields + Olap ([6]; TTFields 24 h): 1.03
- CI TTFields + Olap + 1 Gy ([6]; TTFields 72 h): 1.89
- CI TTFields + Olap + 2 Gy ([6]; TTFields 72 h): 3.08
- CI TTFields + Olap ([6]; TTFields 72 h): 1.06
- combined effect of TTFields, IR, and Olaparib on cell death [7, 9]: synergistic
- CI TTFields + Olap + 1 Gy ([7]; TTFields 24 h): 2.25
- CI TTFields + Olap + 2 Gy ([7]; TTFields 24 h): 2.36
- CI TTFields + Olap ([7]; TTFields 24 h): 0.97
- CI TTFields + Olap + 1 Gy ([7]; TTFields 48 h): 2.12
- CI TTFields + Olap + 2 Gy ([7]; TTFields 48 h): 2.07
- CI TTFields + Olap ([7]; TTFields 48 h): 1.02
- CI TTFields + Olap + 1 Gy ([7]; TTFields 72 h): 1.66
- CI TTFields + Olap + 2 Gy ([7]; TTFields 72 h): 2.57
- CI TTFields + Olap ([7]; TTFields 72 h): 1.49
